Assay results taken from patent US20080051387A1, “TETRAHYDROPYRIDO[3,4-D]PYRIMIDINES AND RELATED ANALOGUES” (priority 2006, published 2008).

target: T1, chimeric human H3 receptor (Homo sapiens, UniProt Q9Y5N1); assay: Chimeric human H3 receptor screening GTP binding assay (inhibition of histamine-stimulated GTP-gamma35S binding, Example 8); assay type: biochemical; conditions: 1 h; assay described in Example 8; symbol "!" in column headed Ki; read-out: Ki ("!": percent inhibition of agonist-induced GTP-gammaS binding to H3)
T1 construct: rat Galpha-i2 (Gnai2, rat); made in house; host or cells: Sf9 insect cells (baculovirus); P2 membranes
Summary of the method: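 Sf9 membranes co-expressing chimeric human H3 receptor and heterotrimeric G-protein (35 μg protein) incubated 60 min at room temperature with 4 μM compound, 1 μM histamine and 125 pM GTP-gamma35S in pH 7.4 buffer with 10 μM GDP. Filter-bound radioactivity, nonspecific (10 μM GTP-gammaS) subtracted, reported as % inhibition of histamine signal.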

T1 sequence (Q9Y5N1 with tags, fused parts or gaps): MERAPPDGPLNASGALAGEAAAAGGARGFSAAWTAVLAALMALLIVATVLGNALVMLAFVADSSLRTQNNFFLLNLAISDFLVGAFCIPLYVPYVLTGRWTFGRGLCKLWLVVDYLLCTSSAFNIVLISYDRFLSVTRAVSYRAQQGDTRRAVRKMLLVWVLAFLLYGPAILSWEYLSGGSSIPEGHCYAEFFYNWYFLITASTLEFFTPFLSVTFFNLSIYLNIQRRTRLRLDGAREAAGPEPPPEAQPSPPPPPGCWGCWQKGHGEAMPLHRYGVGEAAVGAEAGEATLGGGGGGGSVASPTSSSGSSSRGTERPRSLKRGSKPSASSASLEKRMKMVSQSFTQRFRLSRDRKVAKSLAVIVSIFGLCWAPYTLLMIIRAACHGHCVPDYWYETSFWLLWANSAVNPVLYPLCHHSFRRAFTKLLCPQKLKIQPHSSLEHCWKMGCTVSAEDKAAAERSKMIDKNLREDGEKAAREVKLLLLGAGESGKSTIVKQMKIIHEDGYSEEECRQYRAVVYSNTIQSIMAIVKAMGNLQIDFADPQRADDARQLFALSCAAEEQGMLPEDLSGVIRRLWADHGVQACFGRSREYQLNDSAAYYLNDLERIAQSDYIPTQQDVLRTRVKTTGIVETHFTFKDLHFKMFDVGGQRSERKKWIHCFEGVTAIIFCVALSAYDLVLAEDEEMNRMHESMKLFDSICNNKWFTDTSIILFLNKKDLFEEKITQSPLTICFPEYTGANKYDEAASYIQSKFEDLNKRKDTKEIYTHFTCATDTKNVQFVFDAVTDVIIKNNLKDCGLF

| Compound | inhibition at 4 µM [%] |
| --- | --- |
| Cc1ccc(C(=O)N2CCc3cnc(N4CCN(C5CCC5)CC4)nc3CC2)s1 [Compound 445, 2-(4-cyclobutylpiperazin-1-yl)-7-[(5-methyl-2-thienyl)carbonyl]-6,7,8,9-tetrahydro-5H-pyrimido[4,5-d]azepine] | ≥ 90 |
| Cc1ccc(/C=C/C(=O)N2CCc3cnc(N4CCN(C5CCC5)CC4)nc3CC2)cc1 [Compound 557, 2-(4-cyclobutylpiperazin-1-yl)-7-[(2E)-3-(4-methylphenyl)prop-2-enoyl]-6,7,8,9-tetrahydro-5H-pyrimido[4,5-d]azepine] | ≥ 90 |
| O=C(c1ccc(Cl)cc1Cl)N1CCc2cnc(N3CCN(C4CCC4)CC3)nc2CC1 [Compound 442, 2-(4-cyclobutylpiperazin-1-yl)-7-(2,4-dichlorobenzoyl)-6,7,8,9-tetrahydro-5H-pyrimido[4,5-d]azepine] | ≥ 90 |
| O=C(c1ccc(F)cc1F)N1CCc2cnc(N3CCN(C4CCC4)CC3)nc2CC1 [Compound 392, 2-(4-cyclobutylpiperazin-1-yl)-7-(2,4-difluorobenzoyl)-6,7,8,9-tetrahydro-5H-pyrimido[4,5-d]azepine] | ≥ 90 |

same assay, conditions: 1 h; assay of Example 8; symbol "!" in column headed Ki; read-out: percent inhibition of agonist-induced GTP-gammaS binding to H3

| Compound | inhibition at 4 µM [%] |
| --- | --- |
| O=C(C1CCCO1)N1CCc2cnc(N3CCN(C4CCC4)CC3)nc2CC1 (centres unmarked) [Compound 220, 2-(4-cyclobutylpiperazin-1-yl)-7-(tetrahydrofuran-2-ylcarbonyl)-6,7,8,9-tetrahydro-5H-pyrimido[4,5-d]azepine] | ≥ 90 |
| CC(C(=O)N1CCc2cnc(N3CCN(C4CCC4)CC3)nc2CC1)(c1ccccc1)c1ccccc1 [Compound 357, 2-(4-cyclobutylpiperazin-1-yl)-7-(2,2-diphenylpropanoyl)-6,7,8,9-tetrahydro-5H-pyrimido[4,5-d]azepine] | ≥ 90 |
| CCCc1ccc(C(=O)N2CCc3cnc(N4CCN(C5CCC5)CC4)nc3CC2)cc1 [Compound 362, 2-(4-cyclobutylpiperazin-1-yl)-7-(4-propylbenzoyl)-6,7,8,9-tetrahydro-5H-pyrimido[4,5-d]azepine] | ≥ 90 |
| Fc1ccccc1CN1CCc2cnc(N3CCN(C4CCC4)CC3)nc2CC1 [Compound 230, 2-(4-cyclobutylpiperazin-1-yl)-7-(2-fluorobenzyl)-6,7,8,9-tetrahydro-5H-pyrimido[4,5-d]azepine] | ≥ 90 |
| O=C(C1CCCCC1)N1CCc2cnc(N3CCN(C4CCC4)CC3)nc2CC1 [Compound 218, 2-(4-cyclobutylpiperazin-1-yl)-7-(cyclohexylcarbonyl)-6,7,8,9-tetrahydro-5H-pyrimido[4,5-d]azepine] | ≥ 90 |
| COc1cccc(CC(=O)N2CCc3cnc(N4CCN(C5CCC5)CC4)nc3CC2)c1 [Compound 273, 2-(4-cyclobutylpiperazin-1-yl)-7-[(3-methoxyphenyl)acetyl]-6,7,8,9-tetrahydro-5H-pyrimido[4,5-d]azepine] | ≥ 90 |
| COc1cc(Cl)ccc1OCC(=O)N1CCc2cnc(N3CCN(C4CCC4)CC3)nc2CC1 [Compound 318, 7-[(4-chloro-2-methoxyphenoxy)acetyl]-2-(4-cyclobutylpiperazin-1-yl)-6,7,8,9-tetrahydro-5H-pyrimido[4,5-d]azepine] | ≥ 90 |
| Cc1cccc(OCC(=O)N2CCc3cnc(N4CCN(C5CCC5)CC4)nc3CC2)c1C [Compound 327, 2-(4-cyclobutylpiperazin-1-yl)-7-[(2,3-dimethylphenoxy)acetyl]-6,7,8,9-tetrahydro-5H-pyrimido[4,5-d]azepine] | ≥ 90 |
| O=C(/C=C/c1ccc(Cl)cc1Cl)N1CCc2cnc(N3CCN(C4CCC4)CC3)nc2CC1 [Compound 581, 2-(4-cyclobutylpiperazin-1-yl)-7-[(2E)-3-(2,4-dichlorophenyl)prop-2-enoyl]-6,7,8,9-tetrahydro-5H-pyrimido[4,5-d]azepine] | ≥ 90 |
| COc1ccc(CN2CCc3cnc(N4CCN(C5CCC5)CC4)nc3CC2)c(OC)c1 [Compound 243, 2-(4-cyclobutylpiperazin-1-yl)-7-(2,4-dimethoxybenzyl)-6,7,8,9-tetrahydro-5H-pyrimido[4,5-d]azepine] | ≥ 90 |

same assay, conditions: symbol ! in Ki; test compound 4 μM, 1 μM histamine; read-out: percent inhibition of agonist-induced GTP-gammaS binding to H3

| Compound | inhibition at 4 µM [%] |
| --- | --- |
| CCC(C)CN1CCc2nc(N3CCN(C4CCC4)CC3)ncc2C1 (centres unmarked) [Compound 632, 2-(4-cyclobutylpiperazin-1-yl)-6-(2-methylbutyl)-5,6,7,8-tetrahydropyrido[4,3-d]pyrimidine] | ≥ 90 |
| Clc1ccc(CN2CCc3ncnc(N4CCN(C5CCC5)CC4)c3CC2)c(Cl)c1 [Compound 181, 4-(4-cyclobutylpiperazin-1-yl)-7-(2,4-dichlorobenzyl)-6,7,8,9-tetrahydro-5H-pyrimido[4,5-d]azepine] | ≥ 90 |
| CCCCCN1CCc2c(ncnc2N2CCN(C3CCC3)CC2)C1 [Compound 84, 4-(4-cyclobutylpiperazin-1-yl)-7-pentyl-5,6,7,8-tetrahydropyrido[3,4-d]pyrimidine] | ≥ 90 |
| CCC(CC)CN1CCc2c(ncnc2N2CCN(C3CCC3)CC2)C1 [Compound 88, 4-(4-cyclobutylpiperazin-1-yl)-7-(2-ethylbutyl)-5,6,7,8-tetrahydropyrido[3,4-d]pyrimidine] | ≥ 90 |
| O=C(/C=C/c1ccccc1)N1CCc2c(ncnc2N2CCN(C3CCC3)CC2)C1 [Compound 62, 4-(4-cyclobutylpiperazin-1-yl)-7-[(2E)-3-phenylprop-2-enoyl]-5,6,7,8-tetrahydropyrido[3,4-d]pyrimidine] | ≥ 90 |
| CCC(C)CN1CCc2ncnc(N3CCN(C4CCC4)CC3)c2CC1 (centres unmarked) [Compound 167, 4-(4-cyclobutylpiperazin-1-yl)-7-(2-methylbutyl)-6,7,8,9-tetrahydro-5H-pyrimido[4,5-d]azepine] | ≥ 90 |
| c1cncc(CN2CCc3nc(N4CCN(C5CCC5)CC4)ncc3C2)c1 [Compound 620, 2-(4-cyclobutylpiperazin-1-yl)-6-(pyridin-3-ylmethyl)-5,6,7,8-tetrahydropyrido[4,3-d]pyrimidine] | ≥ 90 |
| CCC(CC)CN1CCc2nc(N3CCN(C4CCC4)CC3)ncc2C1 [Compound 633, 2-(4-cyclobutylpiperazin-1-yl)-6-(2-ethylbutyl)-5,6,7,8-tetrahydropyrido[4,3-d]pyrimidine] | ≥ 90 |
| c1nc2c(c(N3CCN(C4CCC4)CC3)n1)CCN(Cc1ccc(N3CCCC3)cc1)CC2 [Compound 182, 4-(4-cyclobutylpiperazin-1-yl)-7-(4-pyrrolidin-1-ylbenzyl)-6,7,8,9-tetrahydro-5H-pyrimido[4,5-d]azepine] | ≥ 90 |
| Cc1cccc(C(C)N2CCc3c(ncnc3N3CCN(C4CCC4)CC3)C2)n1 (centres unmarked) [Compound 110, 4-(4-cyclobutylpiperazin-1-yl)-7-[1-(6-methylpyridin-2-yl)ethyl]-5,6,7,8-tetrahydropyrido[3,4-d]pyrimidine] | ≥ 90 |
| CC(C)c1ccc(CN2CCc3ncnc(N4CCN(C5CCC5)CC4)c3CC2)cc1 [Compound 159, 4-(4-cyclobutylpiperazin-1-yl)-7-(4-isopropylbenzyl)-6,7,8,9-tetrahydro-5H-pyrimido[4,5-d]azepine] | ≥ 90 |
| CCCCCN1CCc2nc(N3CCN(C4CCC4)CC3)ncc2C1 [Compound 629, 2-(4-cyclobutylpiperazin-1-yl)-6-pentyl-5,6,7,8-tetrahydropyrido[4,3-d]pyrimidine] | ≥ 90 |
